ChEMBL document CHEMBL1921695, “Cembranolides from the leaves of Croton gratissimus” (J Nat Prod, 2011)
Values after ≈ are worked out from the molar mass of the structure shown.

Tested on: Plasmodium falciparum
Assay: Antiplasmodial activity against chloroquine-sensitive Plasmodium falciparum D10 infected in human erythrocytes after 3 to 4 days by lactate dehydrogenase assay
Assay type: functional, organism-based

C=C1C[C@@H]2C=C(CC[C@](O)(C(C)C)/C=C/[C@@](C)(O)CC[C@H]1OC(C)=O)C(=O)O2 (relative stereo)
IC50: 13.5 mg/L (≈ 34.4 µM)

C/C1=C\CC[C@](C)(O)/C=C/[C@@H](C(C)C)CCC2=C[C@@H](C1)OC2=O (relative stereo)
IC50: 20.8 mg/L (≈ 65.3 µM)
